Usually IC50 stands for the concentration needed to halve the response being measured.

The nature of data set [1]: In vitro metabolic stability in rat hepatocytes (including calculation of hepatic in vivo blood clearance). Type of data set: in vitro ADME. Conditions: Han Wistar, hepatocytes (freshly isolated, suspension), read-out: CL (hepatic in vivo blood clearance) (converted). As for the experimental part: Investigation of In Vitro Metabolic Stability in Rat Hepatocytes (Including Calculation of Hepatic In Vivo Blood Clearance (CL))
Hepatocytes from Han Wistar rats were isolated via a 2-step perfusion method. After perfusion, the liver was carefully removed from the rat: the liver capsule was opened and the hepatocytes were gently shaken out into a Petri dish with ice-cold WME. The resulting cell suspension was filtered through sterile gaze in 50 ml falcon tubes and centrifuged at 50×g for 3 min at room temperature. The cell pellet was resuspended in 30 ml WME and centrifuged through a Percoll® gradient for 2 times at 100×g. The hepatocytes were washed again with Williams' medium E (WME) and resuspended in medium containing 5% FCS. Cell viability was determined by trypan blue exclusion.
For the metabolic stability assay liver cells were distributed in WME containing 5% FCS to glass vials at a density of 1.0×10^6 vital cells/ml. The test compound was added to a final concentration of 1 μM. During incubation, the hepatocyte suspensions were continuously shaken and aliquots were taken at 2, 8, 16, 30, 45 and 90 min, to which equal volumes of cold methanol were immediately added.
Samples were frozen at −20° C. over night, after subsequently centrifuged for 15 minutes at 3000 rpm and the supernatant was analyzed with an Agilent 1200 HPLC-system with LCMS/MS detection.
The half-life of a test compound was determined from the concentration-time plot. From the half-life the intrinsic clearances were calculated. Together with the additional parameters liver blood flow, amount of liver cells in vivo and in vitro. The hepatic in vivo blood clearance (CL) and the maximal oral bioavailability (Fmax) was calculated. The following parameter values were used: Liver blood flow—4.2 L/h/kg rat; specific liver weight—32 g/kg rat body weight; liver cells in vivo—1.1×10^8 cells/g liver, liver cells in vitro—0.5×10^6 ml.

The target in the next data set is human kinase Mps-1 (Homo sapiens (Human), UniProt P33981). Kind of data set: Mps-1 kinase assay (TR-FRET). The format is biochemical. Conditions: N-terminally GST-tagged human full length recombinant Mps-1, 10 μM ATP. As for the experimental part: The human kinase Mps-1 phosphorylates a biotinylated substrate peptide. Detection of the phosphorylated product is achieved by time-resolved fluorescence resonance energy transfer (TR-FRET) from Europium-labelled anti-phospho-Serine/Threonine antibody as donor to streptavidin labelled with cross-linked allophycocyanin (SA-XLent) as acceptor. Compounds are tested for their inhibition of the kinase activity.
N-terminally GST-tagged human full length recombinant Mps-1 kinase (purchased from Invitrogen, Karslruhe, Germany, cat. no PV4071) was used. As substrate for the kinase reaction a biotinylated peptide of the amino-acid sequence […] (C-terminus in amide form, purchased from Biosynthan GmbH, Berlin) was used.
The concentration of Mps-1 in the assay was adjusted to the activity of the enzyme lot and was chosen appropriate to have the assay in the linear range, typical enzyme concentrations were in the range of about 1 nM (final conc. in the 5 μl assay volume).
The resulting mixture was incubated 1 h at 22° C. to allow the binding of the phosphorylated peptide to the anti-phospho(Ser/Thr)-Europium-antibody. Subsequently the amount of phosphorylated substrate was evaluated by measurement of the resonance energy transfer from the Europium-labelled anti-phospho(Ser/Thr) antibody to the Streptavidin-XLent.

Structures are written as SMILES.

human kinase Mps-1, sequence (P33981 whole entry): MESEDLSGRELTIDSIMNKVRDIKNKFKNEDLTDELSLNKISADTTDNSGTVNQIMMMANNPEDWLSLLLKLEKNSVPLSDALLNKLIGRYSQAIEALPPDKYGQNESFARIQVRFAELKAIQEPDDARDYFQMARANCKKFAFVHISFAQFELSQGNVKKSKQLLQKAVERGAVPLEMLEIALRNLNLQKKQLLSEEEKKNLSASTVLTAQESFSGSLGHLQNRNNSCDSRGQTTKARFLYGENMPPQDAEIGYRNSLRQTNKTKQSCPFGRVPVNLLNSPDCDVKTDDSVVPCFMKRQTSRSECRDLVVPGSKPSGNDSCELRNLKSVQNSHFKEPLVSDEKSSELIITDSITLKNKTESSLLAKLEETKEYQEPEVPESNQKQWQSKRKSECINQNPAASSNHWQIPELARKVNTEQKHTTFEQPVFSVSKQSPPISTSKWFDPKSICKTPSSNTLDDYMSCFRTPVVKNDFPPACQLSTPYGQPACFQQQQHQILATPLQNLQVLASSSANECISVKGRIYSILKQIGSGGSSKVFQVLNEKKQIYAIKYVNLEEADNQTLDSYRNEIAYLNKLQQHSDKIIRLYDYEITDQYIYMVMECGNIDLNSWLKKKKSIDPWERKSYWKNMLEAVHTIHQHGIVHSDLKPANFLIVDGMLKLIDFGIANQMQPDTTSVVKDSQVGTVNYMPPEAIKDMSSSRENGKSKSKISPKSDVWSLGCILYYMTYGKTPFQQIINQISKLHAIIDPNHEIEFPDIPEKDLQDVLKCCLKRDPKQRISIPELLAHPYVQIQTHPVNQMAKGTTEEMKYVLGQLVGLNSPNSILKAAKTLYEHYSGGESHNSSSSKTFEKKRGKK

Turning to `Cc1cc(-c2cnc3c(NCCC(F)(F)F)cc(C(F)(F)c4cccc(F)c4)nn23)ccc1C(=O)NC1CC1` [Example 6, N-Cyclopropyl-4-{6-[difluoro(3-fluorophenyl)methyl]-8-[(3,3,3-trifluoropropyl)amino]imidazo[1,2-b]pyridazin-3-yl}-2-methylbenzamide], in data set [1], the CLhep predicted at 1 μM was 21.7 mL/min/kg. In addition, the IC50 on human kinase Mps-1 is 0.7 nM.
As to `Cc1cc(-c2cnc3c(NCCC(F)(F)F)cc(Cc4cccc(F)c4)nn23)ccc1C(=O)NC1CC1` [Comparative Example 3, N-Cyclopropyl-4-{6-(3-fluorobenzyl)-8-[(3,3,3-trifluoropropyl)amino]imidazo[1,2-b]pyridazin-3-yl}-2-methylbenzamide, reference compound], the CLhep predicted at 1 μM in data set [1] was 40 mL/min/kg.
Still for that read-out and setting: next, `COc1ccc(C(=O)c2cc(NCCC(F)(F)F)c3ncc(-c4ccc(C(=O)NC5CC5)c(C)c4)n3n2)cc1F` [Example 13, N-Cyclopropyl-4-{6-(3-fluoro-4-methoxybenzoyl)-8-[(3,3,3-trifluoropropyl)amino]imidazo[1,2-b]pyridazin-3-yl}-2-methylbenzamide]: 18.3 mL/min/kg.

(Values after patent US9512126B2, “Substituted imidazopyridazines” (Bayer Intellectual Property GmbH, priority 2012, dated 2016).)
